In one data set the test system is H1N1 virus. Nature of the data set: in vivo antiviral effect in mice infected with H1N1. The note with it: for survival rate: nasal administration.
The next data set deals with H7N9 virus. It is filed as in vivo, BALB/c mice. The note with it: 1×LD80 dose of H7N9; nasal administration, 5 doses; PB2-39 2.5 mg/kg, zanamivir 20 μl of 2.5 mg/ml.
The test system of another data set is H5N1 influenza virus. It is filed as in vivo, BALB/c mice. The note with it: 1×LD50 dose of H5N1; nasal administration, 5 doses; PB2-39 2.5 mg/kg, zanamivir 20 μl of 2.5 mg/ml.
In data set [1] the test system is influenza virus. Nature of the data set: microbe, parasite or virus in culture. It is filed as cell-based. Conditions: for Selectivity Index: CC50 divided by IC50; for IC50: unidentified influenza virus.
Another data set in a line: in vitro. The note with it: dog.
For a further data set, the system named is influenza H1N1 virus. It is filed as cell-based, influenza virus A.
Data set [2] has as its system influenza viruses H1N1; H3N2; H5N1; H7N7; H7N9; H9N2. It is filed as cell-based, influenza virus A. The note with it: 20, 5, 1.25, 0.31 μM; 24 h after inoculation; MOI 0.002; RT-qPCR. In general terms: Quantitative PCR measures a nucleic acid by following its amplification.
Data set [3] deals with influenza virus. As to the kind of experiment: lung viral load and histopathology in infected mice (PB2-39 study). The note with it: fourth day following inoculation.
The nature of a further data set: water-solubility. It is filed as physicochemical.
Setting [4] is: 1×LD60 dose of H1N1, PB2-19 1 mg/kg body weight.
[5] abbreviates: 5×LD50 dose of H1N1, 5 doses from 6 h after inoculation, PB2-39 2.5 mg/kg, zanamivir 20 μl of 2.5 mg/ml.
The mark [6] stands for this setting: 1×LD60 dose of H1N1, PB2-19 1 mg/kg.

The structures appear in SMILES notation.

By IC50 is commonly meant the point on the concentration scale where inhibition reaches its midpoint. A low value points to greater potency in that assay.

With `CC(=O)N[C@H]1[C@H]([C@H](O)[C@H](O)CO)OC(C(=O)O)=C[C@@H]1N=C(N)N` [zanamivir, reference compound], the survival rate in the data set on H1N1 virus (setting [4]), in the data set with H1N1 virus (setting [5]), in the data set on H7N9 virus and in the data set on H5N1 influenza virus was 100% in each case.

As for `Cc1ccc(C(c2c(O)c3ccccc3oc2=O)c2c(O)c3ccccc3oc2=O)cc1` [PB2-35, 3,3′-[(4-methylphenyl)methylene]bis(4-hydroxy-2H-chromen-2-one)], in the data set with influenza virus [1], the “Selectivity Index” value was 40 and the half-maximal inhibitory concentration (IC50) stood at 1.24 ± 0.21 µM. Further, in the data set “in vitro”, the CC50 is 50 ± 5 µM.

For `O=c1oc2ccccc2c(O)c1C1c2c(c3ccccc3oc2=O)Oc2c1c(=O)oc1ccccc21` [PB2-39, 7-(4-hydroxy-2-oxo-2H-chromen-3-yl)-6H,7H,8Hchromeno[3,4′:5,6]pyrano[3,2-c]chromene-6,8-dione], the “reduction of the viral titer of supernatant” value with influenza H1N1 virus is 100-1000 times. The concentration for half-maximal inhibition (IC50) in the data set with influenza virus [1] was 1.22 ± 0.23 µM. Besides, in [2], the “inhibition of replication of tested influenza strains” value is reported as “inhibited the replication of all the tested influenza strains in a dose-dependent manner”. In addition, the survival rate in the data set with H1N1 virus (setting [5]), in the data set on H7N9 virus and with H5N1 influenza virus was 100% in each case. Besides, the “amounts of viruses in lung tissues” value with influenza virus [3] (plaque assay, PB2-39 2.5 mg/kg nasal) is recorded as “significantly reduced”. Also, the “histopathological examination: interstitial inflammatory cell infiltration and alveolar injury” value in the data set with influenza virus [3] (lung tissues) is given as “improvement”. Moreover, in the data set “in vitro”, the CC50 is more than 1000 µM.

In the case of `Cc1cc(C(=O)Nc2ccc(I)cc2C(=O)O)ccc1[N+](=O)[O-]` [PB2-19, 5-iodo-2-[(3-methyl-4-nitrobenzoyl)amino]benzoic acid], in the data set on influenza virus [1], the “Selectivity Index” value worked out at 273 and the 50% inhibitory concentration (IC50) was 0.55 ± 0.05 µM. Moreover, in the data set on H1N1 virus (setting [6]), the histopathological findings result is “corroborated the ability of PB2-19 to provide in vivo anti-influenza effects” and the “viral proliferation in the lungs” value is “effectively reduce”. For the same compound, in the data set on H1N1 virus (setting [4]), the survival rate was determined as 100%. In the data set “water-solubility”, the water-solubility entry is reported as “limited”. The CC50 in the data set “in vitro” was found to be 150 ± 10 µM.

For the origin of these results see patent US10792275B2 (priority 2016, dated 2020).
